Test results taken from PubChem BioAssay (NCI).
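The concentration for 50% growth inhibition is given as GI50. TGI: total growth inhibition.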

Assays:
Assay in all cases: NCI tumour cell line growth inhibition, 384-well format
[1] = system: DU-145 prostate
[2] = system: OVCAR-8 ovarian
[3] = system: RPMI-8226 leukemia
[4] = system: CCRF-CEM leukemia
[5] = system: ACHN renal
[6] = system: SR leukemia
[7] = system: SNB-19 CNS
[8] = system: SF-268 CNS
[9] = system: KM12 colon
[10] = system: MOLT-4 leukemia
[11] = system: NCI-H226 lung
[12] = system: HT29 colon
[13] = system: HCT-116 colon
[14] = system: NCI-H460 NSCLC
[15] = system: HOP-62 NSCLC
[16] = system: UACC-257 melanoma
[17] = system: HOP-92 NSCLC
[18] = system: SN12C renal
[19] = system: T-47D breast
[20] = system: COLO 205 colon
[21] = system: SW-620 colon
[22] = system: MALME-3M melanoma
[23] = system: BT-549 breast
[24] = system: K-562 leukemia
[25] = system: HCC-2998 colon
[26] = system: SF-539 CNS
[27] = system: LOX IMVI melanoma
[28] = system: U251 glioblastoma

CCc1cc(C(N)=O)ccc1-n1nc(C(C)C)c2c(-n3cnc(-c4cnn(C)c4)c3)ccnc21
GI50 [1]: 369 nM
TGI [1]: 5800 nM
GI50 [2]: 396 nM
TGI [2]: 1620 nM
GI50 [3]: 376 nM
TGI [3]: 1090 nM
GI50 [4]: 289 nM
TGI [4]: 1250 nM
GI50 [5]: 902 nM
TGI [5]: > 100000 nM
GI50 [6]: 169 nM
TGI [6]: 329 nM
GI50 [7]: 778 nM
TGI [7]: > 100000 nM
GI50 [8]: 510 nM
TGI [8]: > 100000 nM
GI50 [9]: 374 nM
TGI [9]: > 100000 nM
GI50 [10]: 182 nM
TGI [10]: 349 nM
GI50 [11]: 3040 nM
TGI [11]: > 100000 nM
GI50 [12]: 398 nM
TGI [12]: > 100000 nM
GI50 [13]: 561 nM
TGI [13]: 82900 nM
GI50 [14]: 285 nM
TGI [14]: 645 nM
GI50 [15]: 584 nM
TGI [15]: > 100000 nM
GI50 [16]: 5930 nM
TGI [16]: > 100000 nM
GI50 [17]: 675 nM
TGI [17]: 3060 nM
GI50 [18]: 412 nM
TGI [18]: 2440 nM
GI50 [19]: 1590 nM
TGI [19]: 10100 nM
GI50 [20]: 392 nM
TGI [20]: > 100000 nM
GI50 [21]: 407 nM
TGI [21]: 15500 nM
GI50 [22]: 240 nM
TGI [22]: 502 nM
GI50 [23]: 651 nM
TGI [23]: 9960 nM
GI50 [24]: 326 nM
TGI [24]: 3660 nM
GI50 [25]: 406 nM
TGI [25]: 1870 nM
GI50 [26]: 304 nM
TGI [26]: 768 nM
GI50 [27]: 382 nM
TGI [27]: 1260 nM
GI50 [28]: 485 nM
TGI [28]: 3080 nM
